In patent US8921372B2, “Inhibitors of hepatitis C virus” (Theravance Biopharma R&D IP, LLC, priority 2010, dated 2014):

Columns and labels:
[1] = test system: HCV genotype 1b replicon cell line (APC144; Huh7 cell background); assay: HCV Genotype 1b Replicon Assay (Renilla luciferase readout); type: cell-based; conditions: Hepatitis C virus, Huh-7; read-out: Genotype 1b (pEC50 class, HCV genotype 1b replicon assay) (converted)
Procedure, shortened: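 Reported as pEC50 derived from a 4-parameter fit of Renilla luciferase activity against concentration. Replicon cells (APC144, Huh7 background) were exposed to compound for 48 h in G418-free medium with final 0.5% DMSO, after seeding at 10,000 cells/well and 4 h adherence.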

[2] = test system: HCV genotype 1a replicon cell line (APC89; Huh7.5 cell background); assay: HCV Genotype 1a Replicon Assay (NS3-specific protease activity readout); type: cell-based; conditions: Hepatitis C virus, 72 hour incubation, read-out: Genotype 1a (pEC50 class, HCV genotype 1a replicon assay) (converted)
Procedure, shortened: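 EC50 values came from a 4-parameter robust fit of fluorescence (ex 340, em 509 nm) produced by NS3-specific protease in lysates, assayed with 15 μM FRET substrate for 20 min at 37° C, after 48 or 72 hours of compound exposure (0.5% DMSO) of Huh7.5-derived APC89 genotype 1a replicon cells.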

With CNC(=O)N1CCN(c2ccc(C(=O)Nc3cc(F)c(-c4ccc(-c5c[nH]c([C@@H]6CCCN6C(=O)[C@@H](NC(=O)OC)C(C)C)n5)cc4)c(F)c3)cn2)[C@H](C)C1 [Example 43] as the compound, how does the EC50 [1] read?
Its EC50 is under 0.1 nM.

And the EC50 [2]?
The EC50 was 0.1 to 1 nM.

Which results are given for COC(=O)N[C@H](C(=O)N1CCC[C@H]1c1nc(-c2ccc(-c3c(F)cc(NC(=O)c4ccc(N5CCN(C(=O)c6c[nH]cn6)C[C@H]5C)nc4)cc3F)cc2)c[nH]1)C(C)C [Example 44]?
EC50 [1]: < 0.1 nM; EC50 [2]: 0.1 to 1 nM

With COC(=O)N[C@H](C(=O)N1CCC[C@H]1c1nc(-c2ccc(-c3ccc(NC(=O)c4ccc(N5CCN(C(=O)[C@H]6CC6(C)C)C[C@H]5C)nc4)cc3F)cc2)c[nH]1)C(C)C [Example 45, [(S)-1-((S)-2-{5-[4′-({6-[(R)-4-((S)-2,2-Dimethyl-cyclopropanecarbonyl)-2-methyl-piperazin-1-yl]-pyridine-3-carbonyl}-amino)-2′-fluoro-biphenyl-4-yl]-1H-imidazol-2-yl}-pyrrolidine-1-carbonyl)-2-methyl-propyl]-carbamic acid methyl ester] as the compound, how does the EC50 [1] read?
Its EC50 is under 0.1 nM.

And the EC50 [2]?
Its EC50 is under 0.1 nM.

What does the source list for COC(=O)N[C@H](C(=O)N1CCC[C@H]1c1nc(-c2ccc(-c3ccc(NC(=O)c4ccc(N5CCN(C(=O)C6CC6)C[C@H]5C)nc4)cc3F)cc2)c[nH]1)C(C)C [Example 46]?
EC50 [1]: < 0.1 nM; EC50 [2]: 0.1 to 1 nM

Which EC50 [1] does the source give for CNC(=O)N1CCN(c2ccc(C(=O)Nc3ccc(-c4ccc(-c5c[nH]c([C@@H]6CCCN6C(=O)[C@@H](NC(=O)OC)C(C)C)n5)cc4)c(F)c3)cn2)[C@H](C)C1 [Example 47] here?
The EC50 was under 0.1 nM.

And the EC50 [2]?
The EC50 was 0.1 to 1 nM.

What does the source list for COC(=O)N[C@H](C(=O)N1CCC[C@H]1c1nc(-c2ccc(-c3ccc(NC(=O)c4ccc(N5CCN(C(=O)c6c[nH]cn6)C[C@H]5C)nc4)cc3F)cc2)c[nH]1)C(C)C [Example 48]?
EC50 [1]: < 0.1 nM; EC50 [2]: 0.1 to 1 nM

Which EC50 [1] does the source give for COC(=O)N[C@H](C(=O)N1CCC[C@H]1c1nc(-c2ccc(-c3ccc(NC(=O)c4ccc(N5CCN(C(=O)[C@H]6CC6(C)C)C[C@H]5C)nc4)cc3Cl)cc2)c[nH]1)C(C)C [Example 49, [(S)-1-((S)-2-{4-[2′-Chloro-4′-({6-[(R)-4-((S)-2,2-dimethyl-cyclopropanecarbonyl)-2-methyl-piperazin-1-yl]-pyridine-3-carbonyl}-amino)-biphenyl-4-yl]-1H-imidazol-2-yl}-pyrrolidine-1-carbonyl)-2-methyl-propyl]-carbamic acid methyl ester] here?
The EC50 was under 0.1 nM.

And the EC50 [2]?
The EC50 was under 0.1 nM.

How did the EC50 [1] turn out when COC(=O)N[C@H](C(=O)N1CCC[C@H]1c1nc(-c2ccc(-c3ccc(NC(=O)c4ccc(N5CCN(C(=O)[C@H]6CC6(C)C)C[C@H]5C)nc4)cc3F)c(F)c2)c[nH]1)C(C)C [Example 50, [(S)-1-((S)-2-{4-[4′-({6-[(R)-4-((S)-2,2-dimethyl-cyclopropanecarbonyl)-2-methyl-piperazin-1-yl]-pyridine-3-carbonyl}-amino)-2,2′-difluoro-biphenyl-4-yl]-1H-imidazol-2-yl}-pyrrolidine-1-carbonyl)-2-methyl-propyl]-carbamicacid methyl ester] was run?
Its EC50 is under 0.1 nM.

And the EC50 [2]?
The EC50 was under 0.1 nM.

COC(=O)N[C@H](C(=O)N1CCC[C@H]1c1nc(-c2ccc(-c3cc(F)c(NC(=O)c4ccc(N5CCN(C(=O)[C@H]6CC6(C)C)C[C@H]5C)nc4)cc3C(F)(F)F)cc2)c[nH]1)C(C)C [Example 51, [(S)-1-((S)-2-{4-[4′-({6-[(R)-4-((S)-2,2-Dimethyl-cyclopropanecarbonyl)-2-methyl-piperazin-1-yl]-pyridine-3-carbonyl}-amino)-5′-fluoro-2′-trifluoromethyl-biphenyl-4-yl]-1H-imidazol-2-yl}-pyrrolidine-1-carbonyl)-2-methyl-propyl]carbamic acid methyl ester] was tested. Which EC50 [1] did it give?
Its EC50 is under 0.1 nM.

And the EC50 [2]?
Its EC50 is under 0.1 nM.

COC(=O)N[C@H](C(=O)N1CCC[C@H]1c1nc(-c2ccc(-c3cc(F)c(NC(=O)c4ccc(N5CCN(C(=O)[C@]6(C)CCCN6C(=O)[C@@H](NC(=O)OC)C(C)C)C[C@H]5C)nc4)cc3C(F)(F)F)cc2)c[nH]1)C(C)C [Example 52] was tested. Which EC50 [1] did it give?
Its EC50 is under 0.1 nM.

What about the EC50 [2] of the same compound?
Its EC50 is under 0.1 nM.

Which EC50 [1] does the source give for CNC(=O)N1CCN(c2ccc(C(=O)Nc3cc(OC(F)(F)F)c(-c4ccc(-c5c[nH]c([C@@H]6CCCN6C(=O)[C@@H](NC(=O)OC)C(C)C)n5)cc4)cc3F)cn2)[C@H](C)C1 [Example 53, ((S)-1-{(S)-2-[4-(5′-Fluoro-4′-{[6-OR)-2-methyl-4-methylcarbamoyl-piperazin-1-yl)-pyridine-3-carbonyl]-amino}-2′-trifluoromethoxy-biphenyl-4-yl)-1H-imidazol-2-yl]-pyrrolidine-1-carbonyl}-2-methyl-propyl)-carbamic acid methyl ester] here?
The EC50 was under 0.1 nM.

And the EC50 [2]?
The EC50 was under 0.1 nM.

Which results are given for COC(=O)N[C@H](C(=O)N1CCC[C@H]1c1nc(-c2ccc(-c3ccc(C(=O)Nc4ccc(N5CCN(C(=O)[C@]6(C)CCCN6C(=O)[C@@H](NC(=O)OC)C(C)C)C[C@H]5C)nc4)cc3OC(F)(F)F)cc2)c[nH]1)C(C)C [Example 56]?
EC50 [1]: < 0.1 nM; EC50 [2]: 0.1 to 1 nM

What does the source list for COC(=O)N[C@H](C(=O)N1CCC[C@H]1c1nc(-c2ccc(-c3cc(F)c(NC(=O)c4ccc(N5C[C@H](C)N(C(=O)[C@H]6CC6(C)C)C[C@H]5C)nc4)cc3OC(F)(F)F)cc2)c[nH]1)C(C)C [Example 57]?
EC50 [1]: < 0.1 nM; EC50 [2]: < 0.1 nM

What does the source list for CNC(=O)N1C[C@@H](C)N(c2ccc(C(=O)Nc3cc(OC(F)(F)F)c(-c4ccc(-c5c[nH]c([C@@H]6CCCN6C(=O)[C@@H](NC(=O)OC)C(C)C)n5)cc4)cc3F)cn2)C[C@@H]1C [Example 58]?
EC50 [1]: < 0.1 nM; EC50 [2]: < 0.1 nM

What does the source list for COC(=O)N[C@H](C(=O)N1CCC[C@H]1c1nc(-c2ccc(-c3cc(F)c(NC(=O)c4ccc(N5C[C@H](C)N(C(=O)c6c[nH]cn6)C[C@H]5C)nc4)cc3OC(F)(F)F)cc2)c[nH]1)C(C)C [Example 59]?
EC50 [1]: < 0.1 nM; EC50 [2]: < 0.1 nM

Which EC50 [1] does the source give for COC(=O)N[C@H](C(=O)N1CCC[C@H]1c1nc(-c2ccc(-c3cc(F)c(NC(=O)c4ccc(N5C[C@H](C)N(C(=O)c6cc[nH]n6)C[C@H]5C)nc4)cc3OC(F)(F)F)cc2)c[nH]1)C(C)C [Example 60] here?
The EC50 was under 0.1 nM.

And the EC50 [2]?
Its EC50 is under 0.1 nM.

For COC(=O)N[C@H](C(=O)N1CCC[C@H]1c1nc(-c2ccc(-c3cc(Cl)c(NC(=O)c4ccc(N5CCN(C(=O)[C@H]6CC6(C)C)C[C@H]5C)nc4)cc3C(F)(F)F)cc2)c[nH]1)C(C)C [Example 61, [(S)-1-((S)-2-{4-[5′-Chloro-4′-({6-[(R)-4-((S)-2,2-dimethyl-cyclopropanecarbonyl)-2-methyl-piperazin-1-yl]-pyridine-3-carbonyl}-amino)-2′-trifluoromethyl-biphenyl-4-yl]-1H-imidazol-2-yl}-pyrrolidine-1-carbonyl)-2-methyl-propyl]-carbamic acid methyl ester], which EC50 [1] is on record?
Its EC50 is under 0.1 nM.

What about the EC50 [2] of the same compound?
The EC50 was under 0.1 nM.

Which EC50 [1] does the source give for COC(=O)N[C@H](C(=O)N1CCC[C@H]1c1nc(-c2ccc(-c3cc(Cl)c(NC(=O)c4ccc(N5CCN(C(=O)[C@]6(C)CCCN6C(=O)[C@@H](NC(=O)OC)C(C)C)C[C@H]5C)nc4)cc3C(F)(F)F)cc2)c[nH]1)C(C)C [Example 62] here?
The EC50 was under 0.1 nM.

And the EC50 [2]?
The EC50 was under 0.1 nM.

How did the EC50 [1] turn out when CNC(=O)N1C[C@@H](C)N(c2ccc(C(=O)Nc3cc(C(F)(F)F)c(-c4ccc(-c5c[nH]c([C@@H]6CCCN6C(=O)[C@@H](NC(=O)OC)C(C)C)n5)cc4)cc3Cl)cn2)C[C@@H]1C [Example 64] was run?
Its EC50 is under 0.1 nM.

What about the EC50 [2] of the same compound?
Its EC50 is under 0.1 nM.
